Experimental data reported in ChEMBL document CHEMBL1201862, “PubChem BioAssay data set” (2004).
Activity calls are given as the source filed them.

Tests used:
[1] = biological target: Induced myeloid leukemia cell differentiation protein Mcl-1 (Homo sapiens, UniProt Q07820); test: MCL1-BIM BH3 interaction inhibitors, dose response, biochemical, fluorescence polarization, BIM-BH3 peptide, 1536-well (AID 2217)
Bcl-2-like protein 1 = Bcl-2-like protein 1 (Homo sapiens, UniProt Q07817); test: BCL-XL inhibitors, dose response, selectivity assay for MCL1 inhibitor project, biochemical, fluorescence polarization, 1536-well (AID 2218)
Bcl-2-like protein 1, sequence (Q07817 whole entry): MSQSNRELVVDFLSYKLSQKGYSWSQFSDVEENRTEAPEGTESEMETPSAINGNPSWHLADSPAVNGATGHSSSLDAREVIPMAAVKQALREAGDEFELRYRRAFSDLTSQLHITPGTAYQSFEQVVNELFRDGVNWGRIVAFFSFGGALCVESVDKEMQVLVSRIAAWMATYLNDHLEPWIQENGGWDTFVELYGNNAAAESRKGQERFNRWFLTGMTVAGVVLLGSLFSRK

Protein Tat = Protein Tat (Human immunodeficiency virus type 1 group M subtype B (isolate HXB2)(HIV-1), UniProt P04608); type: functional;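 further: tat binding to TAR RNA read out by fluorescence polarization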
Protein Tat, sequence (P04608 whole entry): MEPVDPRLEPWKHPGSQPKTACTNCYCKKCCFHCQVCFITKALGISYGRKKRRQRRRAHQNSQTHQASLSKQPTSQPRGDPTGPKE

[2] = THP-1 cell cytotoxicity, dose response, cytotoxicity control for Vif-APOBEC3G degradation inhibitor project, THP-1 cells (AID 1117359); type: functional; settings: Human immunodeficiency virus 1, THP-1
[3] = inhibitors of Vif binding to APOBEC3G peptide, primary screen, biochemical, TR-FRET, GST-Vif 1-94, biotin-A3G peptide, dose response retest (AID 1117319); type: functional;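 further: TR-FRET signal of purified GST-Vif binding a biotinylated A3G peptide; inhibitors lower the FRET signal by blocking Vif and A3G binding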
[4] = biological target: Peroxisome proliferator-activated receptor gamma/Nuclear receptor coactivator 2 (Homo sapiens, UniProt P37231); type: functional;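 further: agonist potency for raising coactivator recruitment to the receptor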
[5] = biological target: Peroxisome proliferator-activated receptor gamma/Nuclear receptor coactivator 1 (Homo sapiens, UniProt P37231); type: functional;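 further: agonist potency as compounds enhance coactivator SRC-1 recruitment to PPARgamma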
[6] = biological target: Peroxisome proliferator-activated receptor gamma/Nuclear receptor coactivator 3 (Homo sapiens, UniProt P37231); type: functional;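 further: agonist potency for raising coactivator recruitment to the receptor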
Peroxisome proliferator-activated receptor gamma/Nuclear receptor coactivator 3, sequence (P37231 whole entry): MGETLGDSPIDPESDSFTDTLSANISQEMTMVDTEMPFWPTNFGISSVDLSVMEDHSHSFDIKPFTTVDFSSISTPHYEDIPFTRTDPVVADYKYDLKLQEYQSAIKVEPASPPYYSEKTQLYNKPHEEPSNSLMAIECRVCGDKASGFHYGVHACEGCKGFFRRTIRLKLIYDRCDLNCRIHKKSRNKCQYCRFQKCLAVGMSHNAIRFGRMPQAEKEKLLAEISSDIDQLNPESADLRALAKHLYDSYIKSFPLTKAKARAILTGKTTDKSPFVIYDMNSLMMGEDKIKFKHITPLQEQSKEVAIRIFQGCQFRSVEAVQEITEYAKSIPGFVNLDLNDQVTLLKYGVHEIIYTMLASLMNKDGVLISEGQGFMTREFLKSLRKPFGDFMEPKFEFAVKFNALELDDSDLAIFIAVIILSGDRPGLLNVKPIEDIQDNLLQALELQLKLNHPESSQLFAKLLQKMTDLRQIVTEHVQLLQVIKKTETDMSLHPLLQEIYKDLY
Peroxisome proliferator-activated receptor gamma/Nuclear receptor coactivator 3, sequence (Q9Y6Q9 whole entry, further chain): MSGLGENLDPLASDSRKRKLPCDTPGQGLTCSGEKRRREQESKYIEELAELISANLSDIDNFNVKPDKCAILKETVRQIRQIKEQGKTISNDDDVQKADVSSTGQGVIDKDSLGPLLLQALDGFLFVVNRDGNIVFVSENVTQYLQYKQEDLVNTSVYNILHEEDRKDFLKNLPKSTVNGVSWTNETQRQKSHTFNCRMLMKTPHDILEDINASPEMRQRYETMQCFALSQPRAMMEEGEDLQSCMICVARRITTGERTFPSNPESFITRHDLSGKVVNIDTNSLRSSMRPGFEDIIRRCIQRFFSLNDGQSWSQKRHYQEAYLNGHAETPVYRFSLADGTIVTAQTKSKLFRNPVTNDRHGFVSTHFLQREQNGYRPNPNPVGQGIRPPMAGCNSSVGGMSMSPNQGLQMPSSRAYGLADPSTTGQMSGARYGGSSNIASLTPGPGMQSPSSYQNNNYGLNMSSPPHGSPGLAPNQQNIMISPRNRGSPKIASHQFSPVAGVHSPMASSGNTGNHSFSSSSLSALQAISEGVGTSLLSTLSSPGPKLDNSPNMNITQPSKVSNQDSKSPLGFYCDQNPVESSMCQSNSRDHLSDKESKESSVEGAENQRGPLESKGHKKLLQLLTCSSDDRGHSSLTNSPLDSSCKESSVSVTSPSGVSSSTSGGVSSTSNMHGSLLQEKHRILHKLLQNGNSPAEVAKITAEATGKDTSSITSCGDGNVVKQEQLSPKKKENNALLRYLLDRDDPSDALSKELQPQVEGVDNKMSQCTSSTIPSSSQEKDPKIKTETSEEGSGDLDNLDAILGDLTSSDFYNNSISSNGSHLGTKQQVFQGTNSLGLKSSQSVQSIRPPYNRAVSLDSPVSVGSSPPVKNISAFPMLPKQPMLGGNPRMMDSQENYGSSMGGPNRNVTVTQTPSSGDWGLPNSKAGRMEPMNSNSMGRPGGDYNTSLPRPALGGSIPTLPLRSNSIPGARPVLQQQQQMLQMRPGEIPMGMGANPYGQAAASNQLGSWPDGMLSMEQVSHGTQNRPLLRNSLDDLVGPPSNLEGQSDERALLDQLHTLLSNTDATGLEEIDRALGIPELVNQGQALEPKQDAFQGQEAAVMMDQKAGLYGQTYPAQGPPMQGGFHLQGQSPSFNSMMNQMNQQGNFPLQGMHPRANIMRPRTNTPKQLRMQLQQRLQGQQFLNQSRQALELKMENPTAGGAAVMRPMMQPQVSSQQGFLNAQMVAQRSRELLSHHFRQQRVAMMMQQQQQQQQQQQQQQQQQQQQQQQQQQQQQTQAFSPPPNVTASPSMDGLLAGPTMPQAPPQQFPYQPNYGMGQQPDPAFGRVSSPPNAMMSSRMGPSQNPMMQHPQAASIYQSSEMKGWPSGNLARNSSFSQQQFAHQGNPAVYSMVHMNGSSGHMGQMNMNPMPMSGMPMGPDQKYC

[7] = biological target: Mitogen-activated protein kinase 10 (Homo sapiens, UniProt P53779); test: Dose response biochemical screening assay for inhibitors of c-Jun N-Terminal Kinase 3 (JNK3). [Related pubchem assays: 746 ]
Mitogen-activated protein kinase 10, sequence (P53779 whole entry): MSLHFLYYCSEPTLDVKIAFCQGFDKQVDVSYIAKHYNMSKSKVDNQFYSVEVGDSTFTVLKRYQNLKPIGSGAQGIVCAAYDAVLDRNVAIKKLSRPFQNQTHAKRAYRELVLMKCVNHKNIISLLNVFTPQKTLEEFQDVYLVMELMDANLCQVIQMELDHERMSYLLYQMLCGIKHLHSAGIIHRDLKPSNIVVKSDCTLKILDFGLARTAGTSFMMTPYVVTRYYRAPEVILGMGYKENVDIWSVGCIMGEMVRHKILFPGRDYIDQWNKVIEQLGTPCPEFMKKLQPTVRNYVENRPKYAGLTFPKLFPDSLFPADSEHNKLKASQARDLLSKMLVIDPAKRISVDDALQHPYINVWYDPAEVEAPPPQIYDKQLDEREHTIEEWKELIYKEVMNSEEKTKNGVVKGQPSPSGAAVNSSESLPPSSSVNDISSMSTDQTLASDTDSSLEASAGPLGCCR

[8] = biological target: T1, Calpain-2 catalytic subunit (Sus scrofa, UniProt P43367); test: pig calpain II inhibitor potency, dose response, biochemical, fluorogenic peptide substrate (AID 1420); type: functional
T1 sequence (P43367 whole entry): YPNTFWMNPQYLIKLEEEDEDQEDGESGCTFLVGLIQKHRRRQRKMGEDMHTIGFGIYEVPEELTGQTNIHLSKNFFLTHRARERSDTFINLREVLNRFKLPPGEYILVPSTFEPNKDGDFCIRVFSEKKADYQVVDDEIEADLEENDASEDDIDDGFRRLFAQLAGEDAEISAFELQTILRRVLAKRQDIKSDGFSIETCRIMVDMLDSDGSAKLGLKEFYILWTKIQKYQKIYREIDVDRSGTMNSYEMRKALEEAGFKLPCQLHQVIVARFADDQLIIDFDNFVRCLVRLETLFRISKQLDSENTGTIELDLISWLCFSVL

Transthyretin = Transthyretin (Homo sapiens, UniProt P02766); test: Luminescence-based cell-based high throughput dose response assay to identify activators of Transthyretin (TTR) transcription.; type: functional
[9] = biological target: T2, Heat shock protein HSP 90-alpha (Homo sapiens, UniProt P07900); test: Luminescence-based dose response biochemical high throughput screening assay for inhibitors of the Heat Shock Protein 90 (HSP90). [Related pubchem assays: 1831 (Summary AID.), 1846 (Confirmation screen.), 1789 (Primary screen.)]
[10] = biological target: T3, Sphingosine 1-phosphate receptor 2 (Homo sapiens, UniProt O95136); test: Dose Response Cell Based Assay for Agonists of the S1P2 Receptor. [Related pubchem assays: 729, 736, 843 ]; type: functional
T3 sequence (O95136 whole entry): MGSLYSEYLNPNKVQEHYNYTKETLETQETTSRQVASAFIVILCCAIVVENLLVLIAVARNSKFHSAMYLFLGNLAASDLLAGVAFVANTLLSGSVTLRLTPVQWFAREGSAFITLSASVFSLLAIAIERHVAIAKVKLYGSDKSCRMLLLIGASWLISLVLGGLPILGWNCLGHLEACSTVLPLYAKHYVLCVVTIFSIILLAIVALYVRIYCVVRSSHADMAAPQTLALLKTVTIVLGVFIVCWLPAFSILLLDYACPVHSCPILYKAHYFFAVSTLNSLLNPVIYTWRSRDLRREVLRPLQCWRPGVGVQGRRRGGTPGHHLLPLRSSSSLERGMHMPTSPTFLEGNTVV

NADPH oxidase 1 [11] = biological target: T4, NADPH oxidase 1 (Homo sapiens, UniProt Q9Y5S8); test: Late stage results from the probe development effort to identify inhibitors of NOX1: HEK/293 IC50. [Related pubchem assays: 1796 (Summary AID (NOX1)), 2752 (Primary screen (NOX1 inhibitors, synthesized analogs set 2)), 2664 (Primary screen (NOX1 inhibitors, synthesized analogs)), 1792 (Primary Screen (NOX1)), 2545 (Confirmation screen (NOX1 …; type: functional
T4 sequence (Q9Y5S8 whole entry): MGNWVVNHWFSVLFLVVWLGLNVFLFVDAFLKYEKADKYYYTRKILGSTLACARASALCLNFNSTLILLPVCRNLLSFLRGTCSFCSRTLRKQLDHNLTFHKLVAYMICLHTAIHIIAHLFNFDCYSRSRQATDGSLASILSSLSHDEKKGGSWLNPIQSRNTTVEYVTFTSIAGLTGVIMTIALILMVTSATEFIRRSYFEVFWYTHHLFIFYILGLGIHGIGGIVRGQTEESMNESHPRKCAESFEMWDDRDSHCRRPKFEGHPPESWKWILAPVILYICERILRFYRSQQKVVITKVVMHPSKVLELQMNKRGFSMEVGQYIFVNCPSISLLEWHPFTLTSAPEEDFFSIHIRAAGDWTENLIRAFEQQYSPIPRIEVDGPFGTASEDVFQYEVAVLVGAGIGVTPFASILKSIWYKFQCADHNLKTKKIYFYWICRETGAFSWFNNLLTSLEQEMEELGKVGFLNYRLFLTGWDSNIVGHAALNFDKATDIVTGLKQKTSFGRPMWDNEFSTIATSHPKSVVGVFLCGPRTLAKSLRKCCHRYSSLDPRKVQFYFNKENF

NADPH oxidase 1 [12] = biological target: T4, NADPH oxidase 1; test: NOX1 inhibitors, concentration-response, dose response, cell-based, luminescence, cherry picks 2 (AID 434997); type: functional
[13] = biological target: T3, Sphingosine 1-phosphate receptor 2; test: Dose Response Cell Based Assay for Antagonists of the S1P2 Receptor. [Related pubchem assays: 856, 736 ]; type: functional
[14] = HepG2 cell cytotoxicity, dose response, cytotoxicity control, CellTiter-Glo luminescence, dry powder, set 20 (AID 1117291); type: functional, cell-based
[15] = HEK293T cell cytotoxicity, dose response, cytotoxicity control, CellTiter-Glo luminescence, dry powder, set 20 (AID 1117293); type: functional, cell-based; settings: HEK293
[16] = biological target: Metabotropic glutamate receptor 7 (Homo sapiens, UniProt Q14831); test: mGlu7 positive allosteric modulators, dose response, cell-based, calcium mobilization, Galpha15 (AID 743384); type: functional
[17] = HepG2 cell cytotoxicity, dose response, cytotoxicity control, plate reader, dry powder, set 6 (AID 743311); type: functional, cell-based
cells = settings: HEK293
[18] = system: Streptococcus sp. 'group A'; test: growth inhibition of control SK(-) GAS strain, dose response, counter-screen for streptokinase expression inhibitor project, luminescence, kanamycin, BacTiterGlo, confirmation (AID 1900); type: functional, organism-based
Streptococcus = test: Group A Streptococcus viability loss, dose response, counter-screen for streptokinase expression inhibitor project, luminescence, BacTiterGlo (AID 1915); type: functional, organism-based;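 further: potency for reduction of bacterial viability or growth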
Hexokinase = biological target: T5, Hexokinase (Trypanosoma brucei, UniProt Q38C41); test: Confirmation assay for inhibitors of Trypanosoma brucei hexokinase 1-Analogue-first series. [Related pubchem assays (depositor defined):AID1430, AID1632, AID2516, AID2560, AID2579, AID2600, AID449725, AID492951]; type: functional
T5 sequence (Q38C41 whole entry): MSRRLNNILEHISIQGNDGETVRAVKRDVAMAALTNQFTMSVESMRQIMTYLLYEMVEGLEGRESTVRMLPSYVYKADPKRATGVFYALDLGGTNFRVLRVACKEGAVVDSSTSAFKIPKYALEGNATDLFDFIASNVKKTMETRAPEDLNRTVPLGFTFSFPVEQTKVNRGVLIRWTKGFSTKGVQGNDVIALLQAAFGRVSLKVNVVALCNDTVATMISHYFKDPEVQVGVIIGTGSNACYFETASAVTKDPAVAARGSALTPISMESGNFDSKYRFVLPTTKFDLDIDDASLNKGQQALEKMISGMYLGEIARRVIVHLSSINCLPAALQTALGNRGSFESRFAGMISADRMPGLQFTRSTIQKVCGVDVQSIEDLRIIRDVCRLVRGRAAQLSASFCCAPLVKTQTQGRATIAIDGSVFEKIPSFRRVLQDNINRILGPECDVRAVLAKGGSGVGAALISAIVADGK

[19] = biological target: T6, Small ubiquitin-related modifier 1 (Homo sapiens, UniProt P63165); test: inhibitors of SUMO1 peptide binding, dose response, biochemical, fluorescence polarization, uHTS hits (AID 624382); type: functional; settings: read-out: IC50_Mean
T6 sequence (P63165 whole entry): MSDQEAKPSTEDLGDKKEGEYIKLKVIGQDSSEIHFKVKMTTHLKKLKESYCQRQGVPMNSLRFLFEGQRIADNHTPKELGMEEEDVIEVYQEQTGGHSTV

[20] = biological target: T6, Small ubiquitin-related modifier 1; test: inhibitors of SUMO1 partner interactions, dose response, biochemical, FRET (AID 624383); type: functional; settings: read-out: IC50_Mean
[21] = Concentration-dependent survival of SW480 colon cancer line, luminescence detection with CellTiter-Glo, half-maximal inhibitory concentration (AID 1117338); type: functional
[22] = RKO cell viability reduction, dose response, CellTiter-Glo luminescence (AID 1117322); type: functional
[23] = cytotoxicity toward HCT116 cells – cell-based, CellTiter-Glo luminescence, IC50, dose response (AID 1117332); type: functional; settings: HCT-116
[24] = SNU-C1 cell viability reduction, dose response, CellTiter-Glo luminescence (AID 1117323); type: functional, cell-based
[25] = cytotoxicity toward Colo320 cells – cell-based, CellTiter-Glo luminescence, IC50, dose response (AID 1117334); type: functional; settings: COLO 320
[26] = cytotoxicity toward HT-29 cells – cell-based, CellTiter-Glo luminescence, IC50, dose response (AID 1117330); type: functional
[27] = CellTiter-Glo luminescent dose response of DLD-1 viability loss (AID 1117352); type: functional
[28] = HeLa 2N DNA content increase, dose response, cell-based, IC50 (AID 1117349); type: functional
[29] = HeLa 4N DNA content increase, dose response, cell-based, IC50 (AID 1117351); type: functional
[30] = HCT116 cell viability decrease, GSK3B pretreatment – CellTiter-Glo, IC50, dose response (AID 1117339); type: functional; settings: HCT-116
[31] = Luminescent dose response cell-based high throughput screening assay for inhibitors of the Janus kinase 2 mutant JAK2V617F. [Related pubchem assays: 1446 (Primary screen.), 1521 (Confirmation assay.), 1486 (Counter screen.)]; type: functional
[32] = biological target: E3 ubiquitin-protein ligase Mdm2 (Homo sapiens, UniProt Q00987); test: enhancers of MDM2-luciferase reporter signal, concentration-effect titration, project on inhibitors of MDM2 ubiquitin ligase, cellular assay, luminescent readout, 384-well plate format (AID 1394); type: functional;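 further: MDM2 E3 inhibitors raise luminescence so EC50 is for signal enhancement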
E3 ubiquitin-protein ligase Mdm2, sequence (Q00987 whole entry): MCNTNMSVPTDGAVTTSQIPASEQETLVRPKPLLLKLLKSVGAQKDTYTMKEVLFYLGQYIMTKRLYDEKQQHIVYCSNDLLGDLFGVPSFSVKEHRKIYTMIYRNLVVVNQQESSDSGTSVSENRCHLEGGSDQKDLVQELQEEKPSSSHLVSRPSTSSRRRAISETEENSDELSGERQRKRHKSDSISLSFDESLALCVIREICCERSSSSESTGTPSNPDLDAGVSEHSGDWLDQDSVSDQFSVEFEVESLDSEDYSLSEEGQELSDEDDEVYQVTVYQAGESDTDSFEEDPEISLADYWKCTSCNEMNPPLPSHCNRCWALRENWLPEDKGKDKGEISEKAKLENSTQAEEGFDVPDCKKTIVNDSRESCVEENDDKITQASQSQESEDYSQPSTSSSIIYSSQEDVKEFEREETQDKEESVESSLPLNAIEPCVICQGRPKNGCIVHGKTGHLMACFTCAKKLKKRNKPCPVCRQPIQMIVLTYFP

[33] = biological target: Bifunctional protein GlmU (Mycobacterium tuberculosis, UniProt P9WMN3); test: Inhibitors of Mycobacterial Glucosamine-1-phosphate acetyl transferase (GlmU). Secondary screen.; parameters: species or system Mycobacterium tuberculosis H37Rv
Bifunctional protein GlmU, sequence (P9WMN3 whole entry): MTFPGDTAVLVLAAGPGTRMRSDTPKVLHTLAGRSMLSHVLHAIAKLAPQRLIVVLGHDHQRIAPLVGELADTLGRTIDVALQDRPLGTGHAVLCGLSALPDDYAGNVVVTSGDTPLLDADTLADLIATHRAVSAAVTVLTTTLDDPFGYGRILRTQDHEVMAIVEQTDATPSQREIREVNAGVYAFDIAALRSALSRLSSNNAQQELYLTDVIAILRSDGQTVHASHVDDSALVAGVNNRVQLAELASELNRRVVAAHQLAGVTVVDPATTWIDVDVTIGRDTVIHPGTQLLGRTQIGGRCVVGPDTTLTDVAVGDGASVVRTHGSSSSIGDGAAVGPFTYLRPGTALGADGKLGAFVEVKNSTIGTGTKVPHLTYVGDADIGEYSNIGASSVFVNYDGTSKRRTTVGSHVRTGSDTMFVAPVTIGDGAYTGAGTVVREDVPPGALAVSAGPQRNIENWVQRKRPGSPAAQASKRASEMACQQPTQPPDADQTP

[34] = biological target: T2, Heat shock protein HSP 90-alpha; type: functional, organism-based
[35] = Dose-response inhibition of insulin secretion in a rat insulinoma line at 5 mM glucose (AID 1117331); type: functional, cell-based; settings: INS-1E
[36] = Glucagon-like peptide 1 release potency, NCI-H716 cell line, dose-response, half-maximal inhibitory concentration (AID 1117344); type: functional, cell-based

In the case of `O=C(c1cc(-c2ccco2)nn1-c1cccc(Cl)c1)N1CCCCC1`, the IC50 [1] is reported as > 109 µM (not active), the IC50 (Bcl-2-like protein 1) is reported as > 109 µM (not active) and the IC50 (Protein Tat) is reported as > 100 µM (inconclusive). For the same compound, the CC50 [2] was > 40 µM (active) and the IC50 [3] was > 60.7 µM (active).
With `Cn1c(C(=O)NCc2ccco2)cc2c(=O)[nH]c3ccccc3c21` the EC50 [4] was > 79.4 µM (not active), the EC50 [5] was > 79.4 µM (not active) and the EC50 [6] was > 79.4 µM (not active). The IC50 [7] was 31.4 µM (not active).
For `c1cc2c(cc1C1=Nn3c(nnc3C3CCCCC3)SC1)OCO2`, the IC50 [8] was 10.9 µM (not active) and the EC50 (Transthyretin) was > 167 µM (inactive).
For `O=[N+]([O-])c1ccc(S(=O)(=O)N2CCN=C2SCc2ccc(F)cc2)cc1`, the IC50 [9] was 4.79 µM (active).
In the case of `Cc1cccc(C(=O)NC2CC3CCCC(C2)N3C(=O)NC2CCCCC2)c1` (stereo not drawn), the EC50 [10] is reported as > 50 µM (not active).
For `CN(C)c1ccc(NC(=O)Nc2ccc(OCc3ccccc3)cc2)cc1`, the IC50 (NADPH oxidase 1 [11]) was 2.37 µM (active) and the IC50 (NADPH oxidase 1 [12]) was 0.23 µM (active).
In the case of `Cc1nc(-c2cccs2)sc1C(=O)Nc1ccc(F)cc1`, the IC50 [13] is reported as > 30 µM (not active).
With `O=S(=O)(Nc1cc(C(F)(F)F)ccc1N1CCCCC1)c1cc(Cl)cc(Cl)c1` the AC50 [14] was 45.8 µM (active) and the AC50 [15] was 41 µM (active).
With `CC(=O)Nc1ccc(SCC(=O)c2cc(C)n(-c3cccc(F)c3)c2C)cc1` the EC50 [16] was 1.6 µM (active).
For `Sc1nc2cc(Cl)ccc2n1CCOc1ccccc1`, the AC50 [17] was > 52 µM (inactive) and the AC50 (cells) was > 52 µM (inactive).
For `Cc1cc(C(C#N)c2ccc(Cl)cc2)c(Cl)cc1NC(=O)c1cc(I)cc(I)c1O` (stereo not drawn) [CLOSANTEL], the EC50 [18] was 0.114 µM (active), the EC50 (Streptococcus) was 0.092 µM (active) and the IC50 (Hexokinase) was 25 µM (inactive). The IC50 [19] was > 66.6 µM (inactive), the IC50 [20] was 6.59 µM (active) and the IC50 [21] was 0.046 µM (active). The IC50 [22] was 0.197 µM (active), the IC50 [23] was 0.0978 µM (active) and the IC50 [24] was 0.0438 µM (active). For the same compound, the IC50 [25] was 0.116 µM (active), the IC50 [26] was 0.126 µM (active) and the IC50 [27] was 0.069 µM (active).
In the case of `CC(=O)O[C@@]12CO[C@@H]1C[C@H](O)[C@@]1(C)C(=O)[C@H](O)C3=C(C)[C@@H](OC(=O)[C@H](O)[C@@H](NC(=O)OC(C)(C)C)c4ccccc4)C[C@@](O)([C@@H](OC(=O)c4ccccc4)[C@H]21)C3(C)C` [DOCETAXEL], the IC50 [28] is reported as 0.0031 µM (active), the IC50 [21] is reported as 0.001 µM (active) and the IC50 [22] is reported as 0.001 µM (active). The IC50 [23] was 0.001 µM (active), the IC50 [24] was > 20 µM (inactive) and the IC50 [25] was 0.001 µM (active). The IC50 [29] was 0.00335 µM (active), the IC50 [26] was 0.001 µM (active) and the IC50 [30] was 0.001 µM (active).
For `CN(C)C(=S)SSC(=S)N(C)C` [THIRAM], the IC50 [31] was 0.223 µM (active), the EC50 [32] was 0.18 µM (active) and the IC50 [33] was 89.3 µM (active). For the same compound, the AC50 [34] was 7.74 µM (active), the IC50 [35] was > 33.3 µM (inactive) and the IC50 [36] was > 40 µM (inactive).
